Measurements reported in PubChem BioAssay (NCI).
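Dose response: 5 concentrations. Exposure: 48 h. Format: 96-well plates. Endpoint: linear interpolation; highest concentration if not reached. GI50 is the concentration that inhibits growth by half. TGI: total growth inhibition.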

Experiments:
Experiment in all cases: NCI anticancer screen, dose series, 48 h
786-0 renal = test system: 786-0 renal
A498 renal = test system: A498 renal
A549 NSCLC = test system: A549 NSCLC
ACHN renal = test system: ACHN renal
BT-549 breast = test system: BT-549 breast
CAKI-1 renal = test system: CAKI-1 renal
COLO 205 colon = test system: COLO 205 colon
DU-145 prostate = test system: DU-145 prostate
EKVX NSCLC = test system: EKVX NSCLC
HCC-2998 colon = test system: HCC-2998 colon
HCT-116 colon = test system: HCT-116 colon
HCT-15 colon = test system: HCT-15 colon
HL-60(TB) leukemia = test system: HL-60(TB) leukemia
HOP-62 NSCLC = test system: HOP-62 NSCLC
HOP-92 NSCLC = test system: HOP-92 NSCLC
HS 578T breast = test system: HS 578T breast
HT29 colon = test system: HT29 colon
IGROV1 ovarian = test system: IGROV1 ovarian
K-562 leukemia = test system: K-562 leukemia
KM12 colon = test system: KM12 colon
LOX IMVI melanoma = test system: LOX IMVI melanoma
M14 melanoma = test system: M14 melanoma
MALME-3M melanoma = test system: MALME-3M melanoma
MCF7 breast = test system: MCF7 breast
MDA-MB-231 breast = test system: MDA-MB-231 breast
MDA-MB-435 = test system: MDA-MB-435
MDA-MB-468 breast = test system: MDA-MB-468 breast
MOLT-4 leukemia = test system: MOLT-4 leukemia

**Q.** With `O=C(/C=C/c1ccccc1)c1nc2ccccc2n1Cc1ccc(Br)cc1` as the molecule, how does the GI50 (786-0 renal) read?
**A.** 1.79 µM

**Q.** What about the TGI (786-0 renal) of the same molecule?
**A.** 3.34 µM

**Q.** What about the GI50 (A498 renal) of the same molecule?
**A.** 15.1 µM

**Q.** What about the TGI (A498 renal) of the same molecule?
**A.** 28.4 µM

**Q.** What about the GI50 (A549 NSCLC) of the same molecule?
**A.** 3.51 µM

**Q.** What about the TGI (A549 NSCLC) of the same molecule?
**A.** 20.4 µM

**Q.** And the GI50 (ACHN renal)?
**A.** 3.12 µM

**Q.** And the TGI (ACHN renal)?
**A.** 10.1 µM

**Q.** And the GI50 (BT-549 breast)?
**A.** 1.93 µM

**Q.** What about the TGI (BT-549 breast) of the same molecule?
**A.** 4.7 µM

**Q.** And the GI50 (CAKI-1 renal)?
**A.** 2.6 µM

**Q.** What about the TGI (CAKI-1 renal) of the same molecule?
**A.** 11.2 µM

**Q.** And the GI50 (COLO 205 colon)?
**A.** 2.36 µM

**Q.** What about the TGI (COLO 205 colon) of the same molecule?
**A.** 5 µM

**Q.** What about the GI50 (DU-145 prostate) of the same molecule?
**A.** 3.96 µM

**Q.** And the TGI (DU-145 prostate)?
**A.** 18.6 µM

**Q.** What about the GI50 (EKVX NSCLC) of the same molecule?
**A.** 2.75 µM

**Q.** What about the TGI (EKVX NSCLC) of the same molecule?
**A.** 8.44 µM

**Q.** What about the GI50 (HCC-2998 colon) of the same molecule?
**A.** 1.83 µM

**Q.** What about the TGI (HCC-2998 colon) of the same molecule?
**A.** 3.42 µM

**Q.** What about the GI50 (HCT-116 colon) of the same molecule?
**A.** 1.71 µM

**Q.** What about the TGI (HCT-116 colon) of the same molecule?
**A.** 3.16 µM

**Q.** What about the GI50 (HCT-15 colon) of the same molecule?
**A.** 1.67 µM

**Q.** What about the TGI (HCT-15 colon) of the same molecule?
**A.** 3.47 µM

**Q.** And the GI50 (HL-60(TB) leukemia)?
**A.** 1.61 µM

**Q.** What about the TGI (HL-60(TB) leukemia) of the same molecule?
**A.** 4.17 µM

**Q.** What about the GI50 (HOP-62 NSCLC) of the same molecule?
**A.** 2.21 µM

**Q.** And the TGI (HOP-62 NSCLC)?
**A.** 5.09 µM

**Q.** What about the GI50 (HOP-92 NSCLC) of the same molecule?
**A.** 1.92 µM

**Q.** What about the TGI (HOP-92 NSCLC) of the same molecule?
**A.** 8.58 µM

**Q.** What about the GI50 (HS 578T breast) of the same molecule?
**A.** 4.22 µM

**Q.** What about the TGI (HS 578T breast) of the same molecule?
**A.** 53.4 µM

**Q.** And the GI50 (HT29 colon)?
**A.** 2.91 µM

**Q.** And the TGI (HT29 colon)?
**A.** 7.34 µM

**Q.** And the GI50 (IGROV1 ovarian)?
**A.** 2.32 µM

**Q.** And the TGI (IGROV1 ovarian)?
**A.** 5.53 µM

**Q.** And the GI50 (K-562 leukemia)?
**A.** 2.39 µM

**Q.** And the TGI (K-562 leukemia)?
**A.** 6.6 µM

**Q.** And the GI50 (KM12 colon)?
**A.** 2.95 µM

**Q.** And the TGI (KM12 colon)?
**A.** 10.2 µM

**Q.** What about the GI50 (LOX IMVI melanoma) of the same molecule?
**A.** 1.65 µM

**Q.** And the TGI (LOX IMVI melanoma)?
**A.** 3.12 µM

**Q.** What about the GI50 (M14 melanoma) of the same molecule?
**A.** 2.16 µM

**Q.** And the TGI (M14 melanoma)?
**A.** 4.77 µM

**Q.** And the GI50 (MALME-3M melanoma)?
**A.** 1.94 µM

**Q.** And the TGI (MALME-3M melanoma)?
**A.** 4.63 µM

**Q.** And the GI50 (MCF7 breast)?
**A.** 1.78 µM

**Q.** And the TGI (MCF7 breast)?
**A.** 6.26 µM

**Q.** What about the GI50 (MDA-MB-231 breast) of the same molecule?
**A.** 2.26 µM

**Q.** And the TGI (MDA-MB-231 breast)?
**A.** 5.16 µM

**Q.** And the GI50 (MDA-MB-435)?
**A.** 2.25 µM

**Q.** And the TGI (MDA-MB-435)?
**A.** 5.95 µM

**Q.** What about the GI50 (MDA-MB-468 breast) of the same molecule?
**A.** 1.89 µM

**Q.** And the TGI (MDA-MB-468 breast)?
**A.** 3.81 µM

**Q.** And the GI50 (MOLT-4 leukemia)?
**A.** 1.84 µM

**Q.** And the TGI (MOLT-4 leukemia)?
**A.** 5.47 µM
